Each molecule was assayed against T1, recombinant murine Aurora A enzyme (Mus musculus, UniProt P97477) (assay: Aurora A DELFIA Kinase Assay). Conditions: mouse Aurora A, 250 μM ATP; threshold less than or equal to 100 nM; read-out: IC50.
T1 construct: hexahistidine (His6) (N); made in house; host or cells: insect cells, baculovirus (Bac-to-Bac, Invitrogen)
Format: biochemical

T1 sequence (P97477 whole entry): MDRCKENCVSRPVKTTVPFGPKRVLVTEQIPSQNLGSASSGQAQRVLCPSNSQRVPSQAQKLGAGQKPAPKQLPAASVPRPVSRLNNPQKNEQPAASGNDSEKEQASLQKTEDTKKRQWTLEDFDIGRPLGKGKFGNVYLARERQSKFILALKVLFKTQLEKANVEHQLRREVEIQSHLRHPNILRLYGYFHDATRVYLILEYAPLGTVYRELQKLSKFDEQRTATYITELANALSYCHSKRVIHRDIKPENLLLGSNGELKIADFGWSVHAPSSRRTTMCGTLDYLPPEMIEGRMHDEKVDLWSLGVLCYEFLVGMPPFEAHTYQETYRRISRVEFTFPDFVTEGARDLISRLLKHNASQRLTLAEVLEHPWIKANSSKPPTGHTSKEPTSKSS

IC50, ≤ 100 nM:
CN(C)C1CCN(C(=O)c2ccc(Nc3ncc4c(n3)-c3ccc(Cl)cc3C(c3c(F)cccc3F)=NC4)cc2Cl)C1 (centres unmarked) [Compound I-215, 9-chloro-N-(3-chloro-4-{[3-(dimethylamino)pyrrolidin-1-yl]carbonyl}phenyl)-7-(2,6-difluorophenyl)-5H-pyrimido[5,4-d][2]benzazepin-2-amine]
CC1CN(C(=O)c2ccc(Nc3ncc4c(n3)-c3ccc(Cl)cc3C(c3c(F)cccc3F)=NC4)cc2Cl)CCN1 (centres unmarked) [Compound I-216, 9-chloro-N-{3-chloro-4-[(3-methylpiperazin-1-yl)carbonyl]phenyl}-7-(2,6-difluorophenyl)-5H-pyrimido[5,4-d][2]benzazepin-2-amine]
Nc1ccc(Nc2ncc3c(n2)-c2ccc(Cl)cc2C(c2c(F)cccc2F)=NC3)cc1 [Compound I-217, N-[9-chloro-7-(2,6-difluorophenyl)-5H-pyrimido[5,4-d][2]benzazepin-2-yl]benzene-1,4-diamine]
O=C(O)C1CNCCN1C(=O)c1ccc(Nc2ncc3c(n2)-c2ccc(Cl)cc2C(c2c(F)cccc2F)=NC3)cc1 (centres unmarked) [Compound I-219, 1-(4-{[9-chloro-7-(2,6-difluorophenyl)-5H-pyrimido[5,4-d][2]benzazepin-2-yl]amino}benzoyl)piperazine-2-carboxylic acid]
CNC1CCN(C(=O)c2ccc(Nc3ncc4c(n3)-c3ccc(Cl)cc3C(c3c(F)cccc3F)=NC4)cc2)CC1 [Compound I-220, 9-chloro-7-(2,6-difluorophenyl)-N-(4-{[4-(methylamino)piperidin-1-yl]carbonyl}phenyl)-5H-pyrimido[5,4-d][2]benzazepin-2-amine]
NC1CCCN(C(=O)c2ccc(Nc3ncc4c(n3)-c3ccc(Cl)cc3C(c3c(F)cccc3F)=NC4)cc2)C1 (centres unmarked) [Compound I-221]
CC1CN(C(=O)c2cccc(Nc3ncc4c(n3)-c3ccc(Cl)cc3C(c3c(F)cccc3F)=NC4)c2)CC(C)N1 (centres unmarked) [Compound I-222, 9-chloro-7-(2,6-difluorophenyl)-N-{3-[(3,5-dimethylpiperazin-1-yl)carbonyl]phenyl}-5H-pyrimido[5,4-d][2]benzazepin-2-amine]
CN(C)C1CCN(C(=N)NC(=O)c2ccc(Nc3ncc4c(n3)-c3ccc(Cl)cc3C(c3c(F)cccc3F)=NC4)cc2)CC1 [Compound I-223, 4-{[9-chloro-7-(2,6-difluorophenyl)-5H-pyrimido[5,4-d][2]benzazepin-2-yl]amino}-N-[[4-(dimethylamino)piperidin-1-yl](imino)methyl]benzamide]
N=C(NC(=O)c1ccc(Nc2ncc3c(n2)-c2ccc(Cl)cc2C(c2c(F)cccc2F)=NC3)cc1)N1CCNCC1 [Compound I-224, 4-{[9-chloro-7-(2,6-difluorophenyl)-5H-pyrimido[5,4-d][2]benzazepin-2-yl]amino}-N-[imino(piperazin-1-yl)methyl]benzamide]
COc1cccc(F)c1C1=NCc2cnc(Nc3ccc(C(=O)N(C)CCCN(C)C)cc3)nc2-c2ccc(Cl)cc21 [Compound I-225, 4-{[9-chloro-7-(2-fluoro-6-methoxyphenyl)-5H-pyrimido[5,4-d][2]benzazepin-2-yl]amino}-N-[3-(dimethylamino)propyl]-N-methylbenzamide]
COc1cccc(F)c1C1=NCc2cnc(Nc3cccc(C(=O)N(C)CCCN(C)C)c3)nc2-c2ccc(Cl)cc21 [Compound I-226, 3-{[9-chloro-7-(2-fluoro-6-methoxyphenyl)-5H-pyrimido[5,4-d][2]benzazepin-2-yl]amino}-N-[3-(dimethylamino)propyl]-N-methylbenzamide]
COc1cccc(F)c1C1=NCc2cnc(Nc3cccc(C(=O)N4CC(N(C)C)C4)c3)nc2-c2ccc(Cl)cc21 [Compound I-227, 9-chloro-N-(3-{[3-(dimethylamino)azetidin-1-yl]carbonyl}phenyl)-7-(2-fluoro-6-methoxyphenyl)-5H-pyrimido[5,4-d][2]benzazepin-2-amine]
COc1cccc(F)c1C1=NCc2cnc(Nc3cccc(C(=O)N4CC(C)NC(C)C4)c3)nc2-c2ccc(Cl)cc21 (centres unmarked) [Compound I-228, 9-chloro-N-{3-[(3,5-dimethylpiperazin-1-yl)carbonyl]phenyl}-7-(2-fluoro-6-methoxyphenyl)-5H-pyrimido[5,4-d][2]benzazepin-2-amine]
COc1cccc(F)c1C1=NCc2cnc(Nc3cccc(C(=O)N4CCC(N(C)C)CC4)c3)nc2-c2ccc(Cl)cc21 [Compound I-229, 9-chloro-N-(3-{[4-(dimethylamino)piperidin-1-yl]carbonyl}phenyl)-7-(2-fluoro-6-methoxyphenyl)-5H-pyrimido[5,4-d][2]benzazepin-2-amine]
COc1cccc(F)c1C1=NCc2cnc(Nc3cccc(C(=O)N4CCC(N(C)C)C4)c3)nc2-c2ccc(Cl)cc21 (centres unmarked) [Compound I-231, 9-chloro-N-(3-{[3-(dimethylamino)pyrrolidin-1-yl]carbonyl}phenyl)-7-(2-fluoro-6-methoxyphenyl)-5H-pyrimido[5,4-d][2]benzazepin-2-amine]
COc1cccc(F)c1C1=NCc2cnc(Nc3ccc(C(=O)N4CCNC(C)C4)cc3)nc2-c2ccc(Cl)cc21 (centres unmarked) [Compound I-232]
COc1cccc(F)c1C1=NCc2cnc(Nc3ccc(C(=O)N4CCN(C)CC4)cc3)nc2-c2ccc(Cl)cc21 [Compound I-233, 9-chloro-7-(2-fluoro-6-methoxyphenyl)-N-{4-[(4-methylpiperazin-1-yl)carbonyl]phenyl}-5H-pyrimido[5,4-d][2]benzazepin-2-amine]
CNC1CN(C(=O)c2ccc(Nc3ncc4c(n3)-c3ccc(Cl)cc3C(c3c(F)cccc3F)=NC4)cc2)C1 [Compound I-234, 9-chloro-7-(2,6-difluorophenyl)-N-(4-{[3-(methylamino)azetidin-1-yl]carbonyl}phenyl)-5H-pyrimido[5,4-d][2]benzazepin-2-amine]
CNC1CN(C(=O)c2ccc(Nc3ncc4c(n3)-c3ccc(Cl)cc3C(c3c(F)cccc3OC)=NC4)cc2)C1 [Compound I-235, 9-chloro-7-(2-fluoro-6-methoxyphenyl)-N-(4-{[3-(methylamino)azetidin-1-yl]carbonyl}phenyl)-5H-pyrimido[5,4-d][2]benzazepin-2-amine]
CN(C)C1CCN(C(=N)NC(=O)c2ccc(Nc3ncc4c(n3)-c3ccc(Cl)cc3C(c3c(F)cccc3F)=NC4)cc2)C1 (centres unmarked) [Compound I-237, 4-[9-Chloro-7-(2,6-difluoro-phenyl)-5H-benzo[c]pyrimido[4,5-e]azepin-2-ylamino]-N-[(3-dimethylamino-pyrrolidin-1-yl)-imino-methyl]-benzamide]
CC1CN(C(=N)NC(=O)c2ccc(Nc3ncc4c(n3)-c3ccc(Cl)cc3C(c3c(F)cccc3F)=NC4)cc2)CC(C)N1 (centres unmarked) [Compound I-238, 4-{[9-chloro-7-(2,6-difluorophenyl)-5H-pyrimido[5,4-d][2]benzazepin-2-yl]amino}-N-[(3,5-dimethylpiperazin-1-yl)(imino)methyl]benzamide]
NC1CCN(C(=O)c2ccc(Nc3ncc4c(n3)-c3ccc(Cl)cc3C(c3c(F)cccc3F)=NC4)cc2)CC1 [Compound I-239, N-{4-[(4-aminopiperidin-1-yl)carbonyl]phenyl}-9-chloro-7-(2,6-difluorophenyl)-5H-pyrimido[5,4-d][2]benzazepin-2-amine]
COc1cccc(F)c1C1=NCc2cnc(Nc3ccc(C(=O)N4CCC(N)C4)cc3)nc2-c2ccc(Cl)cc21 (centres unmarked) [Compound I-240]
COc1cccc(F)c1C1=NCc2cnc(Nc3ccc(C(=O)N4CCC(N)CC4)cc3)nc2-c2ccc(Cl)cc21 [Compound I-241, N-{4[(4-aminopiperidin-1-yl)carbonyl]phenyl}-9-chloro-7-(2-fluoro-6-methoxyphenyl)-5H-pyrimido[5,4-d][2]benzazepin-2-amine]
CNC1CCN(C(=O)c2ccc(Nc3ncc4c(n3)-c3ccc(Cl)cc3C(c3c(F)cccc3OC)=NC4)cc2)CC1 [Compound I-242, 9-chloro-7-(2-fluoro-6-methoxyphenyl)-N-(4-{[4-(methylamino)piperidin-1-yl]carbonyl}phenyl)-5H-pyrimido[5,4-d][2]benzazepin-2-amine]
COc1cccc(F)c1C1=NCc2cnc(Nc3ccc(C(=O)N4CCNCC4)cc3)nc2-c2ccc(Cl)cc21 [Compound I-243, 9-chloro-7-(2-fluoro-6-methoxyphenyl)-N-[4-(piperazin-1-ylcarbonyl)phenyl]-5H-pyrimido[5,4-d][2]benzazepin-2-amine]
CN(C)C1CCN(C(=N)c2ccc(Nc3ncc4c(n3)-c3ccc(Cl)cc3C(c3c(F)cccc3F)=NC4)cc2)CC1 [Compound I-244, 9-chloro-7-(2,6-difluorophenyl)-N-{4-[[4-(dimethylamino)piperidin-1-yl](imino)methyl]phenyl}-5H-pyrimido[5,4-d][2]benzazepin-2-amine]
CNCCN(C)C(=O)c1ccc(Nc2ncc3c(n2)-c2ccc(Cl)cc2C(c2c(F)cccc2F)=NC3)cc1 [Compound I-246, 4-{[9-chloro-7-(2,6-difluorophenyl)-5H-pyrimido[5,4-d][2]benzazepin-2-yl]amino}-N-methyl-N-[2-(methylamino)ethyl]benzamide]
CN(C)CCN(C)C(=O)c1ccc(Nc2ncc3c(n2)-c2ccc(Cl)cc2C(c2c(F)cccc2F)=NC3)cc1 [Compound I-247, 4-{[9-chloro-7-(2,6-difluorophenyl)-5H-pyrimido[5,4-d][2]benzazepin-2-yl]amino}-N-[2-(dimethylamino)ethyl]-N-methylbenzamide]

From US9102678B2, “Compounds and methods for inhibiting mitotic progression” (Millennium Pharmaceuticals, Inc., priority 2004, dated 2015)
